Data on 14 compounds can be found in ChEMBL document CHEMBL5241112, “Insights into the recent progress in the medicinal chemistry of pyranopyrimidine analogs” (RSC Med Chem, 2022).

For test [1], the system named is Staphylococcus aureus. The test is described as follows: Antibacterial activity against Staphylococcus aureus assessed as bacterial growth inhibition by broth microdilution method. Format: functional. (In broth dilution the organism is exposed to a series of concentrations in liquid medium.)
In test [2] the test system is Escherichia coli. The test can be described thus: Antibacterial activity against Escherichia coli assessed as bacterial growth inhibition by broth microdilution method. The test is classed as functional.
Test [3] relates to Klebsiella pneumoniae. The test is described as follows: Antibacterial activity against Klebsiella pneumoniae assessed as bacterial growth inhibition by broth microdilution method. Format: functional.
Test [4] concerns Pseudomonas aeruginosa. The test can be described thus: Antibacterial activity against Pseudomonas aeruginosa assessed as bacterial growth inhibition by broth microdilution method. The test is classed as functional.
The subject of a further test is Aspergillus flavus. The test can be described thus: Antifungal activity against Aspergillus flavus assessed as fungal growth inhibition by broth microdilution method. The test is classed as functional.
The subject of a further test is Candida albicans. The test can be described thus: Antifungal activity against Candida albicans assessed as fungal growth inhibition by broth microdilution method. The test is classed as functional.
Test [5] concerns Staphylococcus aureus. The test can be described thus: Antimicrobial activity against Staphylococcus aureus assessed as diameter of inhibition zone at 1 mg/ml incubated for 48 hrs by agar disk diffusion method. The test is classed as functional. As to conditions: read-out: DIZ. A general note: In agar diffusion tests the substance spreads into inoculated agar from a disc or well.

For test [6], the system named is Bacillus cereus. The test is described as follows: Antimicrobial activity against Bacillus cereus assessed as diameter of inhibition zone at 1 mg/ml incubated for 48 hrs by agar disk diffusion method. Format: functional. As to conditions: read-out: DIZ.
Test [7] deals with Escherichia coli. The test is described as follows: Antimicrobial activity against Escherichia coli assessed as diameter of inhibition zone at 1 mg/ml incubated for 48 hrs by agar disk diffusion method. The test is classed as functional. As to conditions: read-out: DIZ.
Test [8] relates to Klebsiella pneumoniae. The test is described as follows: Antimicrobial activity against Klebsiella pneumoniae assessed as diameter of inhibition zone at 1 mg/ml incubated for 48 hrs by agar disk diffusion method. The test is classed as functional. As to conditions: read-out: DIZ.
For test [9], the system named is Pseudomonas aeruginosa. The test can be described thus: Antimicrobial activity against Pseudomonas aeruginosa assessed as diameter of inhibition zone at 1 mg/ml incubated for 48 hrs by agar disk diffusion method. Format: functional. As to conditions: read-out: DIZ.
Another test has as its system Penicillium chrysogenum. The test can be described thus: Antifungal activity against Penicillium chrysogenum assessed as diameter of inhibition zone at 1 mg/ml incubated for 72 to 91 hrs by agar disk diffusion method. Format: functional. To be noted: time 72-91 hrs, read-out: DIZ.
The species entered for a further test is Capra hircus. The test is described as follows: Inhibition of goat lens AR at 100 uM incubated for 10 mins in presence of NADPH by spectroscopic analysis.
A short description of test [10]: Antioxidant activity assessed as DPPH radical scavenging activity incubated for 20 mins by spectrophotometric analysis. The test is classed as functional. Further details: concentration or dose not given beside the values. (In general: DPPH is a stable violet radical that fades when it is reduced.)
Test [11] can be described thus: Antioxidant activity assessed as hydroxyl radical scavenging activity incubated for 5 mins by spectrophotometric analysis. Format: functional. Also noted: concentration or dose not given beside the values.
A further test concerns Aspergillus niger. The test is described as follows: Antifungal activity against Aspergillus niger assessed as diameter of inhibition zone at 1 mg/ml incubated for 72 to 91 hrs by agar disk diffusion method. Format: functional. As to conditions: time 72-91 hrs, read-out: DIZ.
In test [12] the test system is Mycobacterium tuberculosis. The test can be described thus: Antitubercular activity against Mycobacterium tuberculosis H37Rv assessed as bacterial growth inhibition at 250 ug/ml. Format: functional.
Test [13] relates to Mycobacterium tuberculosis. The test is described as follows: Antitubercular activity against Mycobacterium tuberculosis H37Rv assessed as bacterial growth inhibition at 100 ug/ml. The test is classed as functional.
Test [14] relates to Bacillus cereus. The test can be described thus: Antimicrobial activity against Bacillus cereus ATCC14579 assessed as diameter of inhibition zone at 20 mg/ml incubated for 24 hrs by disk diffusion method. As to conditions: read-out: DIZ. The test is classed as functional.
Test [15] deals with Staphylococcus aureus. The test can be described thus: Antimicrobial activity against Staphylococcus aureus NCTC7447 assessed as diameter of inhibition zone at 20 mg/ml incubated for 24 hrs by disk diffusion method. Format: functional. To be noted: read-out: DIZ.
Test [16] concerns Klebsiella pneumoniae. The test is described as follows: Antimicrobial activity against Klebsiella pneumoniae UC57 assessed as diameter of inhibition zone at 20 mg/ml incubated for 24 hrs by disk diffusion method. The test is classed as functional. As to conditions: read-out: DIZ.
In test [17] the test system is Pseudomonas aeruginosa. The test can be described thus: Antimicrobial activity against Pseudomonas aeruginosa ATCC 27853 assessed as diameter of inhibition zone at 20 mg/ml incubated for 24 hrs by disk diffusion method. Format: functional. As to conditions: read-out: DIZ.
In test [18] the test system is Escherichia coli. The test is described as follows: Antimicrobial activity against Escherichia coli ATCC 14169 assessed as diameter of inhibition zone at 20 mg/ml incubated for 24 hrs by disk diffusion method. Format: functional. As to conditions: read-out: DIZ.
Test [19] relates to Staphylococcus aureus. The test can be described thus: Antibacterial activity against Staphylococcus aureus assessed as diameter of inhibition zone. The test is classed as functional.
For another test, the system named is Bacillus subtilis. The test can be described thus: Antibacterial activity against Bacillus subtilis assessed as diameter of inhibition zone. The test is classed as functional.
The subject of test [20] is Escherichia coli. The test is described as follows: Antibacterial activity against Escherichia coli assessed as diameter of inhibition zone. The test is classed as functional.
Another test deals with Salmonella typhimurium. The test is described as follows: Antibacterial activity against Salmonella typhimurium assessed as diameter of inhibition zone. The test is classed as functional, Salmonella enterica subsp. enterica serovar Typhimurium.
For another test, the target named is Urease (Canavalia ensiformis, UniProt P07374). The test is described as follows: Inhibition of jack bean urease by phenol red method.
Sequence of Urease (P07374 whole entry): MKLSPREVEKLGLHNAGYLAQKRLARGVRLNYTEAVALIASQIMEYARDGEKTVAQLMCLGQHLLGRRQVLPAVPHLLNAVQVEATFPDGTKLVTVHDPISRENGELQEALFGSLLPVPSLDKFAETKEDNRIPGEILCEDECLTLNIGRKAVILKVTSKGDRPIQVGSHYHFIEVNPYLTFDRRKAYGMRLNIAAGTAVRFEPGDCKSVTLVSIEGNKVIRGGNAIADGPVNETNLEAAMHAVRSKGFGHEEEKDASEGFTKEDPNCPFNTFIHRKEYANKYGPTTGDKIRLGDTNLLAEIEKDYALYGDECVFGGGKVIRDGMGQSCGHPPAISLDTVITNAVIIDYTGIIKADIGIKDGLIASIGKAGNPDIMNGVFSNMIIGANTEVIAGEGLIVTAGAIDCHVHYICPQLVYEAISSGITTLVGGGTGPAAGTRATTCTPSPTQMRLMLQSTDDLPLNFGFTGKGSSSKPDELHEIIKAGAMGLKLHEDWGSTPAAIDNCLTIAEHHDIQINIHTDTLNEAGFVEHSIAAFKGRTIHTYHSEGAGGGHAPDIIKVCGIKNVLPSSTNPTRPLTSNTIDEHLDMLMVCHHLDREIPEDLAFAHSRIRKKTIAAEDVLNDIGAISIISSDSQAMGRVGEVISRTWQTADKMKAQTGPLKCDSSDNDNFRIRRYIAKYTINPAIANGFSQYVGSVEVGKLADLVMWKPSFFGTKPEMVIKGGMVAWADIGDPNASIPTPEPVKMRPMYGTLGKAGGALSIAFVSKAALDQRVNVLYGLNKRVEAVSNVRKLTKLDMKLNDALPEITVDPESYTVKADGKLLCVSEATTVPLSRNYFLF

Molecules are shown by their SMILES. ≈ marks a conversion by molar mass, not a printed value.

Broadly, the MIC is the lowest concentration that inhibits growth of the organism. `CCO/C=N/C1=C(C#N)C(c2ccc(F)cc2)c2c(n(C)c(=O)n(C)c2=O)O1` (stereo not given): the minimal inhibitory concentration (MIC) in the test on Staphylococcus aureus [1] came out at 6.25 µg/mL (≈ 16.3 µM); in the test on Escherichia coli [2], 6.25 µg/mL (≈ 16.3 µM); in the test on Klebsiella pneumoniae [3], 6.25 µg/mL (≈ 16.3 µM); in the test on Pseudomonas aeruginosa [4], 6.25 µg/mL (≈ 16.3 µM); in the test with Aspergillus flavus, 3.12 µg/mL (≈ 8.12 µM); in the test on Candida albicans it was 3.12 µg/mL (≈ 8.12 µM).

For `COC(=O)C1=C(N)Oc2[nH]c(=S)[nH]c(=O)c2C1c1ccc(OC)cc1` (stereo not given), the zone of inhibition at 1000 µg/mL came out at 16 mm with Staphylococcus aureus [5]; 19 mm in the test with Bacillus cereus [6]; 15 mm with Escherichia coli [7]; 18 mm in the test on Klebsiella pneumoniae [8]; 16 mm in the test with Pseudomonas aeruginosa [9]; 12 mm with Penicillium chrysogenum.

Usually inhibition stands for the percentage by which the read-out fell short of the control. For `O=c1[nH]c2c(c(=O)[nH]1)Oc1c(c(=O)oc3ccccc13)C2c1cccc([N+](=O)[O-])c1` (stereo not given), the inhibition in the test filed under Capra hircus was determined as 59%. Further, the Activity in test [10] was 59.1%; in test [11], 54.3%.

Regarding `COC(=O)C1=C(N)Oc2[nH]c(=S)[nH]c(=O)c2C1c1ccc(OC)c(OC)c1` (stereo not given), the zone of inhibition at 1000 µg/mL in the test on Staphylococcus aureus [5] was found to be 13 mm; in the test on Bacillus cereus [6], 15 mm; in the test with Escherichia coli [7], 16 mm; in the test on Klebsiella pneumoniae [8], 14 mm; in the test with Pseudomonas aeruginosa [9] it was 12 mm; in the test with Aspergillus niger, 0 mm. In the test on Penicillium chrysogenum, the zone of inhibition at 1000 µg/mL turned out to be 12 mm.

As for `COC(=O)C1=C(N)Oc2[nH]c(=S)[nH]c(=O)c2C1c1ccccc1Cl` (stereo not given), the zone of inhibition at 1000 µg/mL was 11 mm in the test on Staphylococcus aureus [5]; 9 mm in the test with Escherichia coli [7]; 4 mm with Pseudomonas aeruginosa [9]; 0 mm with Aspergillus niger; 0 mm with Penicillium chrysogenum.

`CO[C@H]1/C=C/O[C@@]2(C)Oc3c(C)c(O)c4c(O)c(c(/C=N/N5CCN(C)CC5)c(O)c4c3C2=O)NC(=O)/C(C)=C\C=C\[C@H](C)[C@H](O)[C@@H](C)[C@@H](O)[C@@H](C)[C@H](OC(C)=O)[C@@H]1C` [RIFAMPIN]: the inhibition at 250 µg/mL in [12] is 98%. Besides, the inhibition at 100 µg/mL in test [13] was 98%.

Turning to `COC(=O)C1=C(N)Oc2[nH]c(=S)[nH]c(=O)c2C1c1ccc(C)cc1` (stereo not given), the zone of inhibition at 1000 µg/mL worked out at 15 mm in the test with Staphylococcus aureus [5]; 12 mm with Bacillus cereus [6]; 16 mm with Escherichia coli [7]; 19 mm in the test on Klebsiella pneumoniae [8]; 21 mm with Pseudomonas aeruginosa [9]; 23 mm with Aspergillus niger. In addition, the zone of inhibition at 1000 µg/mL in the test with Penicillium chrysogenum is 23 mm.

One may read the IC50 as the concentration that gives 50% inhibition. Consider `N#CC1=C(N)Oc2[nH]c(=O)[nH]c(=O)c2C1c1ccc(Br)cc1` (stereo not given), for which the zone of inhibition at 20000 µg/mL with Bacillus cereus [14] came to 4 mm; in the test with Staphylococcus aureus [15] it was 12 mm; in the test with Klebsiella pneumoniae [16], 3 mm; in the test with Pseudomonas aeruginosa [17] it was 4 mm; with Escherichia coli [18], 6 mm. Besides, the “diameter of the inhibition zone (DIZ)” value in the test on Staphylococcus aureus [19] was 18 mm; in the test with Bacillus subtilis, 14 mm; in the test on Escherichia coli [20], 12 mm; in the test on Salmonella typhimurium it was 16 mm. At Urease, this compound had an IC50 of 51.3 µM.

Regarding `COC(=O)C1=C(N)Oc2[nH]c(=S)[nH]c(=O)c2C1c1ccc(Cl)cc1` (stereo not given), the zone of inhibition at 1000 µg/mL in the test with Bacillus cereus [6] is 10 mm; in the test with Escherichia coli [7], 7 mm; in the test with Klebsiella pneumoniae [8], 3 mm; in the test with Pseudomonas aeruginosa [9], 13 mm; in the test on Penicillium chrysogenum it was 0 mm.

In the case of `CCO/C=N/C1=C(C#N)C(c2cc(OC)ccc2OC)c2c(n(C)c(=O)n(C)c2=O)O1` (stereo not given), the minimum inhibitory concentration (MIC) with Staphylococcus aureus [1] came to 6.25 µg/mL (≈ 14.7 µM); with Escherichia coli [2], 6.25 µg/mL (≈ 14.7 µM); with Klebsiella pneumoniae [3], 6.25 µg/mL (≈ 14.7 µM); in the test on Pseudomonas aeruginosa [4], 6.25 µg/mL (≈ 14.7 µM); with Aspergillus flavus, 3.12 µg/mL (≈ 7.32 µM); in the test on Candida albicans, 3.12 µg/mL (≈ 7.32 µM).

In the case of `COC(=O)C1=C(N)Oc2[nH]c(=S)[nH]c(=O)c2C1c1ccc([N+](=O)[O-])cc1` (stereo not given), the zone of inhibition at 1000 µg/mL in the test with Staphylococcus aureus [5] turned out to be 17 mm; in the test with Bacillus cereus [6] it was 21 mm; with Escherichia coli [7] it was 17 mm; in the test on Klebsiella pneumoniae [8], 17 mm; in the test on Pseudomonas aeruginosa [9], 20 mm; in the test with Aspergillus niger it was 23 mm. In addition, in the test on Penicillium chrysogenum, the zone of inhibition at 1000 µg/mL was determined as 12 mm.

Take `O=c1c(O)c(-c2ccc(O)c(O)c2)oc2cc(O)cc(O)c12`: the inhibition in the test listed under Capra hircus worked out at 92%.

On to `COC(=O)C1=C(N)Oc2[nH]c(=S)[nH]c(=O)c2C1c1ccc(O)cc1` (stereo not given), for which the zone of inhibition at 1000 µg/mL in the test with Staphylococcus aureus [5] stood at 21 mm; with Bacillus cereus [6], 18 mm; with Escherichia coli [7] it was 21 mm; in the test with Klebsiella pneumoniae [8], 22 mm; in the test on Pseudomonas aeruginosa [9], 18 mm; in the test on Aspergillus niger it was 23 mm. In the test on Penicillium chrysogenum, the zone of inhibition at 1000 µg/mL amounted to 23 mm.

For the compound `O=c1[nH]c2c(c(=O)[nH]1)Oc1c(c(=O)oc3ccccc13)C2c1ccc(Cl)cc1` (stereo not given), in the test filed under Capra hircus, the inhibition came to 47%. The Activity is 71.5% in [10] and 68.3% in test [11].
